ChEMBL document CHEMBL1158239, “Costaricine, a new antiplasmodial bisbenzylisoquinoline alkaloid from Nectandra salicifolia trunk bark” (J Nat Prod, 1996)
Converted amounts (≈) assume the structure as drawn.

Columns and labels:
Plasmodium falciparum [1] = test: Antimalarial activity against chloroquine-sensitive Plasmodium falciparum D6 as [3H]hypoxanthine uptake; assay type: functional, organism-based
Plasmodium falciparum [2] = test: Antimalarial activity against chloroquine-resistant Plasmodium falciparum W2 as [3H]hypoxanthine uptake; assay type: functional, organism-based

Row | SMILES | IC50 (Plasmodium falciparum [1]) [µg/mL] | IC50 (Plasmodium falciparum [2]) [µg/mL]
1 | COc1ccc2c(c1O)[C@H](Cc1ccc(O)cc1)NCC2 | 4.1 (≈ 14.4 µM) | 3.1 (≈ 10.9 µM)
2 | COc1ccc2c(c1O)[C@H](Cc1ccc(O)cc1)N(C)CC2 | 4.09 (≈ 13.7 µM) | 4.48 (≈ 15 µM)
3 | COc1cc2c(cc1OC)-c1c(OC)c(OC)c(OC)c3c1[C@H](C2)NCC3 | 1.51 (≈ 4.07 µM) | 1.75 (≈ 4.71 µM)
4 | COc1cc2c(cc1O)C[C@H]1c3c(cc(OC)c(OC)c3-2)CCN1C | 7.15 (≈ 20.9 µM) | 2.7 (≈ 7.91 µM)
5 | COc1ccc2c(c1O)-c1c(OC)c(OC)cc3c1[C@H](C2)NCC3 | 1.99 (≈ 6.08 µM) | 1.9 (≈ 5.8 µM)
6 | COc1cc2c(cc1O)[C@H](Cc1ccc(O)cc1)N(C)CC2 | 2.73 (≈ 9.12 µM) | 3.81 (≈ 12.7 µM)
7 | COc1cc2c(cc1OC)[C@]13CCN(C)[C@@H](C2)[C@@H]1CC(=O)C(OC)C3 (some centres not stated) | 7.1 (≈ 20.6 µM) | 9.02 (≈ 26.1 µM)
8 | COc1ccc(C[C@H]2c3cc(O)c(OC)cc3CCN2C)cc1O [(S)-RETICULINE] | 5.8 (≈ 17.6 µM) | 3.65 (≈ 11.1 µM)
9 | C[C@@H]1CC[C@H]2[C@@H](C)C(=O)O[C@@H]3O[C@@]4(C)CC[C@@H]1[C@]32OO4 [ARTEMISININ] | 0.0041 (≈ 0.0145 µM) | 0.0022 (≈ 0.00779 µM)
10 | COc1cc2c(cc1O)C[C@H]1c3c(cc(O)c(OC)c3-2)CCN1C [BOLDINE] | 2.13 (≈ 6.51 µM) | 1.47 (≈ 4.49 µM)
11 | COc1cc2c(cc1O)[C@@H](Cc1ccc(Oc3cc(C[C@H]4NCCc5cc(OC)c(O)cc54)ccc3OC)cc1)NCC2 [COSTARICINE] | 0.05 (≈ 0.0858 µM) | 0.294 (≈ 0.505 µM)
12 | COc1cc2c(cc1O)C[C@H]1c3c(cc(OC)c(O)c3-2)CCN1C [ISOBOLDINE] | 0.668 (≈ 2.04 µM) | 0.904 (≈ 2.76 µM)
13 | COc1ccc2c(c1O)-c1c(OC)c(OC)cc3c1[C@H](C2)N(C)CC3 [ISOCORYDINE] | 1.9 (≈ 5.57 µM) | 2.83 (≈ 8.29 µM)
14 | COc1cc2c(cc1O)C[C@@H]1NCCc3cc(OC)c(OC)c-2c31 [LAUROTETANINE] | 3.9 (≈ 11.9 µM) | 2.53 (≈ 7.73 µM)
15 | COc1cc2c(cc1O)C[C@@H]1NCCc3cc(O)c(OC)c-2c31 [NORBOLDINE] | 1.24 (≈ 3.96 µM) | 1.68 (≈ 5.36 µM)
16 | C=C[C@H]1CN2CC[C@H]1C[C@H]2[C@H](O)c1ccnc2ccc(OC)cc12 [QUININE] | 0.0157 (≈ 0.0484 µM) | 0.0388 (≈ 0.12 µM)
